These results are taken from PubChem BioAssay AID1259408 (Genetic Toxicology Data Bank (GENE-TOX), 2018).

Activity calls are given as the source filed them. No rule for the calls is given here.

This data set has as its system GENE-TOX genotoxicity assays, various organisms and cells. Description: GENE-TOX mutagenicity studies. The conditions noted are these: for call: Assay Type: In vivo carcinogenicity studies.
The mark [1] stands for this setting: Species/Cell Type: Mammalian polychromatic erythrocytes, Assay Type: Micronucleus test, chromosome aberrations, Assay Code: MNTT, Evaluation Type: Evaluation A (Pre-1980).
Where [2] appears, read: Species/Cell Type: Neurospora crassa, Assay Type: Aneuploidy, chromosome aberrations, Assay Code: NEN-, Evaluation Type: Evaluation A (Pre-1980).
The mark [3] stands for this setting: Species/Cell Type: Fischer rat embryo (RLV/1706) cells, Assay Type: Cell transformation, viral enhanced, Assay Code: CTR+, Evaluation Type: Evaluation A (Pre-1980).
[4] abbreviates: Species/Cell Type: Mouse germ cells, Sex: Male, Assay Type: Unscheduled DNA synthesis (UDS) in vivo, DNA effects, Assay Code: UDT+, Evaluation Type: Evaluation A (Pre-1980).
Where [5] appears, read: Species/Cell Type: Rodents, Sex: Male, Assay Type: Dominant lethal test, Assay Code: DLT+, Evaluation Type: Evaluation A (Pre-1980).

With `Oc1cccc(O)c1`, the mutagenic call is, setting by setting: (Species/Cell Type: Allium cepa, Assay Type: Chromosome aberrations, Assay Code: ALC+, Evaluation Type: Evaluation A (Pre-1980)) “active; positive”; (Species/Cell Type: Human lymphocytes, Assay Type: Sister-chromatid exchange (SCE) in vitro, Assay Code: SCL-, Evaluation Type: Evaluation B (Post-1980)) “inactive; negative”; (Species/Cell Type: Human, Assay Type: Sister-chromatid exchange (SCE) in vitro, Assay Code: SC1-, Evaluation Type: Evaluation B (Post-1980)) “inactive; negative”; under setting [1], “no conclusion”; under setting [2], “inactive; negative”; (Species/Cell Type: Nonhuman, Assay Type: Sister-chromatid exchange (SCE) in vitro, Assay Code: SC2T, Evaluation Type: Evaluation B (Post-1980)) “no conclusion”. For the same molecule, the mutagenic call is, setting by setting: (Species/Cell Type: Nonhuman, Assay Type: Sister-chromatid exchange (SCE) in vivo, Assay Code: SC3-, Evaluation Type: Evaluation B (Post-1980)) “inactive; negative”; (Species/Cell Type: Salmonella typhimurium (one or more of the five standard strains: TA98, TA100, TA1535, TA1537, and TA1538), Assay Type: Histidine reverse gene mutation, Ames assay, Assay Code: SAL-, Evaluation Type: Evaluation A (Pre-1980)) “inactive; negative”.
Take `CCN(CC)CCNc1ccc(CO)c2sc3ccccc3c(=O)c12`: the mutagenic call is, setting by setting: (Species/Cell Type: Drosophila melanogaster, Assay Type: Sex-linked recessive lethal gene mutation, Assay Code: SRL+, Evaluation Type: Evaluation A (Pre-1980)) “active; positive”; (Species/Cell Type: Drosophila melanogaster, Assay Type: Sex-linked recessive lethal gene mutation, Assay Code: SRLT, Evaluation Type: Evaluation A (Pre-1980)) “no conclusion”; (Species/Cell Type: Drosophila melanogaster, Sex: Male, Assay Type: Heritable translocation test, chromosome aberrations, Assay Code: DHT-, Evaluation Type: Evaluation A (Pre-1980)) “inactive; negative”; under setting [3], “active; positive”; (Species/Cell Type: Glycine max (soybean), Assay Type: Gene mutation, Assay Code: GLM-, Evaluation Type: Evaluation A (Pre-1980)) “inactive; negative”; (Species/Cell Type: Mammalian polychromatic erythrocytes, Assay Type: Micronucleus test, chromosome aberrations, Assay Code: MNT+, Evaluation Type: Evaluation A (Pre-1980)) “active; positive”. For the same molecule, the mutagenic call (Species/Cell Type: Mouse (C3H/10T1/2) cells, Assay Type: Cell transformation, Assay Code: CTH+, Evaluation Type: Evaluation A (Pre-1980)) was “active; positive”; the mutagenic call under setting [4] is “active; positive”; the mutagenic call (Species/Cell Type: Mouse lymphoma (L5178Y) cells, Assay Type: Forward gene mutation at the thymidine kinase (TK) locus, chromosome aberrations, Assay Code: L51+, Evaluation Type: Evaluation A (Pre-1980)) was “active; positive”; the mutagenic call (Species/Cell Type: Mouse, Sex: Female, Assay Type: Spot test, gene mutation, Assay Code: MSTT, Evaluation Type: Evaluation A (Pre-1980)) is given as “no conclusion”; the mutagenic call (Species/Cell Type: Mouse, Sex: Male, Assay Type: Specific locus test, gene mutation, Assay Code: SLT-, Evaluation Type: Evaluation A (Pre-1980)) is “inactive; negative”; the mutagenic call (Species/Cell Type: Mouse, Sex: Male, Assay Type: Sperm morphology, Assay Code: SPI+, Evaluation Type: Evaluation A (Pre-1980)) was “active; positive”. The mutagenic call reads like this: under setting [2], “inactive; negative”; (Species/Cell Type: Neurospora crassa, Assay Type: Forward gene mutation, Assay Code: NEF+, Evaluation Type: Evaluation A (Pre-1980)) “active; positive”; (Species/Cell Type: Nonhuman bone marrow, Assay Type: Chromosome aberrations, in vivo, Assay Code: CY#T, Evaluation Type: Evaluation A (Pre-1980)) “no conclusion”; (Species/Cell Type: Nonhuman, Assay Type: Chromosome aberrations in vitro, Assay Code: CY&T, Evaluation Type: Evaluation A (Pre-1980)) “no conclusion”; (Species/Cell Type: Nonhuman, Assay Type: Sister-chromatid exchange (SCE) in vitro, Assay Code: SC2+D, Dose Response: With dose response, Evaluation Type: Evaluation A (Pre-1980)) “active; positive”; (Species/Cell Type: Nonhuman, Assay Type: Sister-chromatid exchange (SCE) in vivo, Assay Code: SC3+D, Dose Response: With dose response, Evaluation Type: Evaluation B (Post-1980)) “active; positive”. Further, the mutagenic call is “active; positive” under setting [5]; “inactive; negative” (Species/Cell Type: Rodents, Sex: Male, Assay Type: Dominant lethal test, Assay Code: DLT-, Evaluation Type: Evaluation A (Pre-1980)); “active; positive” (Species/Cell Type: Saccharomyces cerevisiae, Assay Type: Mitotic recombination or gene conversion, Assay Code: YEC+, Evaluation Type: Evaluation A (Pre-1980)); “active; positive” (Species/Cell Type: Saccharomyces cerevisiae, Assay Type: Mitotic recombination or gene conversion, Assay Code: YEH+, Evaluation Type: Evaluation A (Pre-1980)); “active; positive” (Species/Cell Type: Saccharomyces cerevisiae, Assay Type: Reverse gene mutation, Assay Code: YER+, Evaluation Type: Evaluation A (Pre-1980)); “active; positive” (Species/Cell Type: Salmonella typhimurium (one or more of the five standard strains: TA98, TA100, TA1535, TA1537, and TA1538), Assay Type: Histidine reverse gene mutation, Ames assay, Assay Code: SAL+, Evaluation Type: Evaluation A (Pre-1980)). For the same molecule, the mutagenic call (Species/Cell Type: Salmonella typhimurium, Assay Type: Forward and reverse gene mutation, body fluid assay, Assay Code: BFU+, Evaluation Type: Evaluation A (Pre-1980)) was “active; positive”; the mutagenic call (Species/Cell Type: Salmonella typhimurium, Assay Type: Forward and reverse gene mutation, host-mediated assay, Assay Code: HMA+, Evaluation Type: Evaluation A (Pre-1980)) was “active; positive”; the mutagenic call (Species/Cell Type: Schizosaccharomyces pombe, Assay Type: Forward gene mutation, Assay Code: YEY+, Evaluation Type: Evaluation A (Pre-1980)) is “active; positive”; the mutagenic call (Species/Cell Type: Syrian hamster embryo (SHE) cells, Assay Type: Cell transformation, clonal assay, Assay Code: CTC+, Evaluation Type: Evaluation A (Pre-1980)) is “active; positive”. The call (Species/Cell Type: Nonhuman, Assay Code: CCG-L, Evaluation Type: Evaluation A (Pre-1980)) was “inactive; negative”.
With `CCCCCOC(=O)COc1cc(Cl)c(Cl)cc1Cl`, the mutagenic call (Species/Cell Type: Saccharomyces cerevisiae, Assay Type: Mitotic recombination or gene conversion, Assay Code: YEC-, Evaluation Type: Evaluation A (Pre-1980)) was “inactive; negative”.
Take `C#C[C@]1(O)CC[C@H]2[C@@H]3CCc4cc(CC)ccc4[C@H]3CC[C@@]21C` (tested in a mixture with another compound): the mutagenic call (Species/Cell Type: Rodents, Sex: Male, Assay Type: Dominant lethal test, Assay Code: DLTT, Evaluation Type: Evaluation A (Pre-1980)) is “no conclusion”.
`CCCC(C)(COC(N)=O)COC(N)=O`: the mutagenic call reads like this: (Species/Cell Type: Drosophila melanogaster, Assay Type: Aneuploidy, partial sex chromosome loss, chromosome aberrations, Assay Code: DAPT, Evaluation Type: Evaluation A (Pre-1980)) “no conclusion”; (Species/Cell Type: Drosophila melanogaster, Assay Type: Aneuploidy, whole sex chromosome loss, chromosome aberrations, Assay Code: DAC-M, Evaluation Type: Evaluation A (Pre-1980)) “inactive; negative”; (Species/Cell Type: Drosophila melanogaster, Assay Type: Sex-linked recessive lethal gene mutation, Assay Code: SRL-, Evaluation Type: Evaluation A (Pre-1980)) “inactive; negative”.
Turning to `CCN(CC)CCCC(C)Nc1c2ccc(Cl)cc2nc2ccc(OC)cc12` (centres undefined), the mutagenic call (Species/Cell Type: Escherichia coli polA (W3119 vs P3478), Assay Type: Rec-assay, DNA effects (bacterial DNA repair), Assay Code: RE1+, Evaluation Type: Evaluation A (Pre-1980)) was “active; positive”; the mutagenic call (Species/Cell Type: Human lymphocytes, Assay Type: Sister-chromatid exchange (SCE) in vitro, Assay Code: SCL+, Evaluation Type: Evaluation B (Post-1980)) was “active; positive”; the mutagenic call (Species/Cell Type: Human, Assay Type: Sister-chromatid exchange (SCE) in vitro, Assay Code: SC1+, Evaluation Type: Evaluation B (Post-1980)) is “active; positive”; the mutagenic call (Species/Cell Type: Mammalian polychromatic erythrocytes, Assay Type: Micronucleus test, chromosome aberrations, Assay Code: MNT+, Evaluation Type: Evaluation B (Post-1980)) is “active; positive”; the mutagenic call under setting [1] was “no conclusion”; the mutagenic call (Species/Cell Type: Mouse, Sex: Male, Assay Type: Sperm morphology, Assay Code: SPI-, Evaluation Type: Evaluation A (Pre-1980)) is “inactive; negative”.
`CSCCC(N)C(=O)O` (centres undefined): the mutagenic call (Species/Cell Type: Escherichia coli polA (W3119 vs P3478), Assay Type: Rec-assay, DNA effects (bacterial DNA repair), Assay Code: RE1T, Evaluation Type: Evaluation A (Pre-1980)) is listed as “no conclusion”.
Take `CCCOS(C)(=O)=O`: the mutagenic call reads like this: (Species/Cell Type: Hordeum vulgare (barley), Assay Type: Chromosome aberrations, Assay Code: HOC+, Evaluation Type: Evaluation A (Pre-1980)) “active; positive”; (Species/Cell Type: Hordeum vulgare (barley), Assay Type: Gene mutation, Assay Code: HOM+D, Dose Response: With dose response, Evaluation Type: Evaluation A (Pre-1980)) “active; positive”; (Species/Cell Type: Mammalian germ cells, Sex: Male, Assay Type: Chromosome aberrations in vivo, Assay Code: CY9T, Evaluation Type: Evaluation A (Pre-1980)) “no conclusion”; under setting [4], “active; positive”; (Species/Cell Type: Mouse, Sex: Male, Assay Type: Specific locus test, gene mutation, Assay Code: SLT+, Evaluation Type: Evaluation A (Pre-1980)) “active; positive”; under setting [5], “active; positive”.
With `Clc1nc(Cl)nc(Nc2ccccc2Cl)n1`, under setting [3], the mutagenic call is “active; positive”. In addition, where the note is “Species/Cell Type: Nonhuman, Assay Code: CCG-, Evaluation Type: Evaluation A (Pre-1980)”, the call was “inactive; negative”.
As to `Nc1cc(S(=O)(=O)O)cc2c1C(=O)/C(=N/Nc1ccc(-c3ccc(N/N=C4/C(=O)c5c(N)cc(S(=O)(=O)O)cc5C=C4S(=O)(=O)O)cc3)cc1)C(S(=O)(=O)O)=C2`, the call (Species/Cell Type: Nonhuman, Assay Code: CCG+, Evaluation Type: Evaluation A (Pre-1980)) was “active; positive”.
`Clc1ccc2ccccc2n1`: for the setting “Species/Cell Type: Salmonella typhimurium (one or more of the five standard strains: TA98, TA100, TA1535, TA1537, and TA1538), Assay Type: Histidine reverse gene mutation, Ames assay, Assay Code: SALT, Evaluation Type: Evaluation A (Pre-1980)”, the mutagenic call is given as “no conclusion”.
